Values joined by “and” are separate entries in the source; they are usually repeats but may differ in a detail not shown here. Equal values may be shown once.
Experiments:
[1] = molecular target: T1, Rtt109-Vps75 (Saccharomyces cerevisiae, UniProt Q07794); experiment: HAT-ThioGlo1 time course assay, Rtt109-Vps75; type: biochemical, S. cerevisiae; conditions: IC50, 50 nM Rtt109-Vps75, 15 μM H3n21 peptide, 30 μM Ac-CoA
T1 construct: 6xHis (on one of the two proteins of the complex); made in house; host or cells: bacteria
T1 sequence (Q07794 1-436): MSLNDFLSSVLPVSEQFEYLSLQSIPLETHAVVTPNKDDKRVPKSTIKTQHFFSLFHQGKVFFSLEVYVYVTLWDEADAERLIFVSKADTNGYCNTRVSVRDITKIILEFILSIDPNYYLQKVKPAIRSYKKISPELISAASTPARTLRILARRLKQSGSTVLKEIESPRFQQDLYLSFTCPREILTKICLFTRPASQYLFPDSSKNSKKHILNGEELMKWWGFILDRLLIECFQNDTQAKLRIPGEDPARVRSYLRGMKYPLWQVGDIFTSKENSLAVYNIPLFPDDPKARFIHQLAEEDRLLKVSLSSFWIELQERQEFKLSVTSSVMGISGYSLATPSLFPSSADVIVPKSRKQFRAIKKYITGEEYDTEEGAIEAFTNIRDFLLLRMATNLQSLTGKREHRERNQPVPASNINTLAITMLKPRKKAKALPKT
T1 sequence (P53853 1-264 partner): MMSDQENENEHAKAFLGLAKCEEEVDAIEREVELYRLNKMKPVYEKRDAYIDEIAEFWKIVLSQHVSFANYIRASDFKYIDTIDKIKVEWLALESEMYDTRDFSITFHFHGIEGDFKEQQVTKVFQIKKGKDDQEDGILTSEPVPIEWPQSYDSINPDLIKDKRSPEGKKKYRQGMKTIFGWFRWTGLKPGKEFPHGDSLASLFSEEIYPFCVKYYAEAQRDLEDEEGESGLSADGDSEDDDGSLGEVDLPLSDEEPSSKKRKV

[2] = molecular target: T2, p300 (Homo sapiens, UniProt Q09472); experiment: HAT-ThioGlo1 time course assay, p300; type: biochemical; conditions: up to 100 μM
T2 construct: p300 catalytic domain (p300 amino acids 1195-1810; Fan, 2010); 6xHis (N); FLAG (N); made in house; host or cells: BL21 E. coli
T2 sequence (Q09472 1195-1810): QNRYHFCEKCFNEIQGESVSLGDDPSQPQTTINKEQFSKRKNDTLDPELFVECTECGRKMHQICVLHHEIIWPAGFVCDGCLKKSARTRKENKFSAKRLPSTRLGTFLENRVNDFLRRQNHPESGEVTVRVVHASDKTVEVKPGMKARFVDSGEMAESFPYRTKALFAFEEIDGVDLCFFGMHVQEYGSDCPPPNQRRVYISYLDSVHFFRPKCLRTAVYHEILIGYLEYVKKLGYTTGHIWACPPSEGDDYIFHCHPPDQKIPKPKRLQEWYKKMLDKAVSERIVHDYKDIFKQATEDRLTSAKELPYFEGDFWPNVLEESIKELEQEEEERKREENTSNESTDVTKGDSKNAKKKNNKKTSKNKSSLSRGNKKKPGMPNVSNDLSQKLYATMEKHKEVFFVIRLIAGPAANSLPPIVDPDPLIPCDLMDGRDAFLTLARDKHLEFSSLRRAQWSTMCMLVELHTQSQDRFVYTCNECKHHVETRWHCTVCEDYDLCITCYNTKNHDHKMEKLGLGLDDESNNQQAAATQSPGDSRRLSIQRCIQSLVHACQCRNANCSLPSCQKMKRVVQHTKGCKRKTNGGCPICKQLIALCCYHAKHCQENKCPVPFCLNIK

[3] = molecular target: T3, Gcn5 (Saccharomyces cerevisiae, UniProt Q03330); experiment: HAT-ThioGlo1 time course assay, Gcn5; type: biochemical, S. cerevisiae; conditions: up to 100 μM
T3 construct: 6xHis (N); made in house; host or cells: BL21 E. coli
T3 sequence (Q03330 whole entry): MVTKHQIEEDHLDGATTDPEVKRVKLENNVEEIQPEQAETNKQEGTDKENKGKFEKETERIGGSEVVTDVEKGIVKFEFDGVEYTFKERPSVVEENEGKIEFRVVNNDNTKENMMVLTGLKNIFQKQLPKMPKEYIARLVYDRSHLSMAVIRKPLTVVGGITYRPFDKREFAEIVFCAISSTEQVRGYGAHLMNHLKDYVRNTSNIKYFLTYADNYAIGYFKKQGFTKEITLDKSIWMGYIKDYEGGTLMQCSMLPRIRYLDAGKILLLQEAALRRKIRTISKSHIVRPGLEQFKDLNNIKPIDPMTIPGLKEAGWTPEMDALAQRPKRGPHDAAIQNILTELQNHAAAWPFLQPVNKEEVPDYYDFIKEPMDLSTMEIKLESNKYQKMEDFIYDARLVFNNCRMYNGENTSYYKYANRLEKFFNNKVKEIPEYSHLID

SMILES: CCCC1(c2ccccc2)NC(=O)N(CC(=O)N(C)Cc2c(F)cccc2Cl)C1=O (stereo not drawn) [KB7, N-[(2-chloro-6-fluorophenyl)methyl]-2-(2,5-dioxo-4-phenyl-4-propylimidazolidin-1-yl)-N-methylacetamide]
- IC50 [1]: 55.2 nM and ~56 nM
- enzyme reaction rate, % activity [2]: ≥ 80%
- enzyme reaction rate, % activity [3]: ≥ 80%
